From ChEMBL document CHEMBL1201862, “PubChem BioAssay data set” (2004)
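All cell lines were grown in 96-well plates and treated with compound for 48 hours. GI50: concentration for 50% inhibition of growth.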 The source made the active and inactive calls. Cut-off read from the data, not from the text of the source: active = GI50 up to about 1.1 µM and inactive = higher.

What was measured:
Assay in all cases: NCI anticancer screen, dose series, 48 h
786-0 = system: 786-0
A498 = system: A498
BT-549 = system: BT-549
CCRF-CEM = system: CCRF-CEM
HCC 2998 = system: HCC 2998
HOP-92 = system: HOP-92
HT-29 = system: HT-29
Hs-578T = system: Hs-578T
IGROV-1 = system: IGROV-1
NCI-H460 = system: NCI-H460
NCI/ADR-RES = system: NCI/ADR-RES
PC-3 = system: PC-3
SF-539 = system: SF-539
SK-MEL-28 = system: SK-MEL-28
SK-MEL-2 = system: SK-MEL-2
SK-OV-3 = system: SK-OV-3
SR = system: SR
UACC-62 = system: UACC-62
EKVX = system: EKVX

Row | SMILES | GI50 (786-0) | GI50 (A498) | GI50 (BT-549) | GI50 (CCRF-CEM) | GI50 (HCC 2998) | GI50 (HOP-92) | GI50 (HT-29) | GI50 (Hs-578T) | GI50 (IGROV-1) | GI50 (NCI-H460) | GI50 (NCI/ADR-RES) | GI50 (PC-3) | GI50 (SF-539) | GI50 (SK-MEL-28) | GI50 (SK-MEL-2) | GI50 (SK-OV-3) | GI50 (SR) | GI50 (UACC-62) | GI50 (EKVX)
1 | [N-]=[N+]=NC1(c2ccccc2)C(=O)Nc2ccccc2C1=O (stereo not given) | 68.2 µM (inactive) | 0.706 µM (active) | 13.8 µM (inactive) | 27.3 µM (inactive) | 57.8 µM (inactive) | 26.1 µM (inactive) | 31.3 µM (inactive) | 22.3 µM (inactive) | 37.1 µM (inactive) | 37.5 µM (inactive) | 51.2 µM (inactive) | 25.1 µM (inactive) | 36.8 µM (inactive) | 56.2 µM (inactive) | 24.4 µM (inactive) | 55.6 µM (inactive) | 41.2 µM (inactive) | 19.1 µM (inactive) | –
2 | CCn1c(SCC(=O)N/N=C2\SCC(=O)N2c2ccc(C)cc2)nc2ccccc2c1=O | 19.1 µM (inactive) | 20.8 µM (inactive) | > 10 µM (inactive) | 34 µM (inactive) | 36.8 µM (inactive) | – | 16.5 µM (inactive) | 16.4 µM (inactive) | 21.6 µM (inactive) | 24.7 µM (inactive) | 19.8 µM (inactive) | 21.3 µM (inactive) | 17.6 µM (inactive) | 20.6 µM (inactive) | 28.9 µM (inactive) | 19.7 µM (inactive) | 17.4 µM (inactive) | 15.3 µM (inactive) | 22.4 µM (inactive)
3 | CCOC(=O)CNC1=NNS(=O)(=O)c2ccccc21 | > 100 µM (inactive) | 20.8 µM (inactive) | > 100 µM (inactive) | 59.8 µM (inactive) | > 100 µM (inactive) | > 100 µM (inactive) | > 100 µM (inactive) | > 100 µM (inactive) | > 100 µM (inactive) | 32.6 µM (inactive) | > 100 µM (inactive) | > 100 µM (inactive) | > 100 µM (inactive) | > 100 µM (inactive) | – | > 100 µM (inactive) | 97.1 µM (inactive) | > 100 µM (inactive) | > 100 µM (inactive)
4 | CCCCOCCOCCOC1=C(Cl)C(=O)c2c(O)ccc(O)c2C1=O | 1.79 µM (inactive) | 2.36 µM (inactive) | 1.39 µM (inactive) | < 0.01 µM (active) | 2.1 µM (inactive) | 0.199 µM (active) | 0.484 µM (active) | 2.4 µM (inactive) | 1.35 µM (inactive) | 1.85 µM (inactive) | 1.97 µM (inactive) | 1.62 µM (inactive) | 1.51 µM (inactive) | 0.357 µM (active) | – | 4.25 µM (inactive) | < 0.01 µM (active) | 0.8 µM (active) | 2.57 µM (inactive)
5 | c1cc2nnc1SCCCSc1ccc(nn1)SCCCSc1ccc(nn1)SCCCS2 | 61 µM (inactive) | > 100 µM (inactive) | > 100 µM (inactive) | > 100 µM (inactive) | > 100 µM (inactive) | – | > 100 µM (inactive) | 32.4 µM (inactive) | > 100 µM (inactive) | > 100 µM (inactive) | > 100 µM (inactive) | > 100 µM (inactive) | 82.4 µM (inactive) | > 100 µM (inactive) | 83.8 µM (inactive) | > 100 µM (inactive) | > 100 µM (inactive) | > 100 µM (inactive) | –
6 | COC(=O)C1=CO[C@@H](OC2OC(CO)C(O)C(O)C2O)[C@H]2[C@@H](C)[C@@H](O)[C@@H](O)[C@@H]12 (stereo not given in full) | > 100 µM (inactive) | > 100 µM (inactive) | > 100 µM (inactive) | – | > 100 µM (inactive) | > 100 µM (inactive) | > 100 µM (inactive) | > 100 µM (inactive) | > 100 µM (inactive) | – | > 100 µM (inactive) | > 100 µM (inactive) | > 100 µM (inactive) | > 100 µM (inactive) | > 100 µM (inactive) | > 100 µM (inactive) | 36.6 µM (inactive) | > 100 µM (inactive) | > 100 µM (inactive)
7 | Cc1ccc(S(=O)(=O)C2=C(C(C)C)N=NC2(C)C)cc1 | > 100 µM (inactive) | > 100 µM (inactive) | 48.8 µM (inactive) | – | 73.6 µM (inactive) | 14.3 µM (inactive) | > 100 µM (inactive) | 57.5 µM (inactive) | 91.4 µM (inactive) | > 100 µM (inactive) | 64.7 µM (inactive) | > 100 µM (inactive) | > 100 µM (inactive) | > 100 µM (inactive) | > 100 µM (inactive) | – | 29.3 µM (inactive) | – | > 100 µM (inactive)
8 | C(=NCCN1CCOCC1)=NC1CCCCC1 | > 100 µM (inactive) | > 100 µM (inactive) | > 100 µM (inactive) | – | – | > 100 µM (inactive) | > 100 µM (inactive) | > 100 µM (inactive) | > 100 µM (inactive) | > 100 µM (inactive) | > 100 µM (inactive) | > 100 µM (inactive) | > 100 µM (inactive) | > 100 µM (inactive) | > 100 µM (inactive) | > 100 µM (inactive) | 12.4 µM (inactive) | > 100 µM (inactive) | > 100 µM (inactive)
9 | Nc1n[n+]([O-])c2ccc(Cl)cc2[n+]1[O-] | 31.7 µM (inactive) | 26.9 µM (inactive) | 13.2 µM (inactive) | 22.4 µM (inactive) | 16.4 µM (inactive) | – | 25.8 µM (inactive) | 13.9 µM (inactive) | 11.6 µM (inactive) | – | 36.3 µM (inactive) | 22.3 µM (inactive) | 23 µM (inactive) | 23.8 µM (inactive) | 31.7 µM (inactive) | 16.7 µM (inactive) | 32.5 µM (inactive) | > 10 µM (inactive) | 32.2 µM (inactive)
10 | [N-]=[N+]=Nc1ccccc1-c1ccccc1[N+](=O)[O-] | 88.1 µM (inactive) | 45 µM (inactive) | 32.3 µM (inactive) | – | – | 72.1 µM (inactive) | 44.3 µM (inactive) | 30.5 µM (inactive) | > 100 µM (inactive) | 26.9 µM (inactive) | 29.9 µM (inactive) | 37.8 µM (inactive) | – | > 100 µM (inactive) | 27.2 µM (inactive) | > 100 µM (inactive) | 28.1 µM (inactive) | 74.3 µM (inactive) | 39.4 µM (inactive)
11 | CCC(=O)Nc1ccc(NCC(=O)Nc2ccc(OC)cc2)cc1 | 20.3 µM (inactive) | 27.7 µM (inactive) | 23.2 µM (inactive) | 25.4 µM (inactive) | 6.76 µM (inactive) | 23.8 µM (inactive) | 20.9 µM (inactive) | 30.3 µM (inactive) | 25.8 µM (inactive) | – | 28.1 µM (inactive) | 26.2 µM (inactive) | 17.5 µM (inactive) | 49.1 µM (inactive) | 18.4 µM (inactive) | 8.67 µM (inactive) | 31.8 µM (inactive) | 19.1 µM (inactive) | 16.7 µM (inactive)
12 | N#CC(CC(=O)O)=C(c1ccccc1)c1ccccc1 | > 100 µM (inactive) | > 100 µM (inactive) | > 100 µM (inactive) | – | > 100 µM (inactive) | > 100 µM (inactive) | > 100 µM (inactive) | 70.1 µM (inactive) | > 100 µM (inactive) | > 100 µM (inactive) | > 100 µM (inactive) | > 100 µM (inactive) | > 100 µM (inactive) | > 100 µM (inactive) | > 100 µM (inactive) | > 100 µM (inactive) | > 100 µM (inactive) | > 100 µM (inactive) | > 100 µM (inactive)
13 | COc1ccccc1N1C(=O)CC(=O)N(C(=O)CCCCCCCCC(=O)N2C(=O)CC(=O)N(c3ccccc3OC)C2=S)C1=S | > 100 µM (inactive) | > 100 µM (inactive) | 55.3 µM (inactive) | 27.3 µM (inactive) | > 100 µM (inactive) | 59.2 µM (inactive) | 49.4 µM (inactive) | 69 µM (inactive) | – | 83.9 µM (inactive) | 91.6 µM (inactive) | 62.5 µM (inactive) | > 100 µM (inactive) | > 100 µM (inactive) | > 100 µM (inactive) | > 100 µM (inactive) | 28.4 µM (inactive) | 41.8 µM (inactive) | 51.8 µM (inactive)
14 | OC(Cc1ccc2ccccc2n1)(C(F)(F)F)C(F)(F)F | > 10 µM (inactive) | > 10 µM (inactive) | > 10 µM (inactive) | > 10 µM (inactive) | > 10 µM (inactive) | > 10 µM (inactive) | > 10 µM (inactive) | > 10 µM (inactive) | > 10 µM (inactive) | > 10 µM (inactive) | > 10 µM (inactive) | > 10 µM (inactive) | > 10 µM (inactive) | > 10 µM (inactive) | – | > 10 µM (inactive) | > 10 µM (inactive) | > 10 µM (inactive) | > 10 µM (inactive)
15 | CNc1ncnc(Sc2nc(N)nc3[nH]cnc23)c1[N+](=O)[O-] | 0.583 µM (active) | 17.9 µM (inactive) | 2.6 µM (inactive) | 0.084 µM (active) | – | 0.52 µM (active) | 1.09 µM (active) | 3.24 µM (inactive) | 3.85 µM (inactive) | 0.552 µM (active) | 0.427 µM (active) | 4.23 µM (inactive) | 5.09 µM (inactive) | 8.2 µM (inactive) | 0.634 µM (active) | 0.547 µM (active) | 0.1 µM (active) | 0.586 µM (active) | 3.08 µM (inactive)
16 | O=C1CSC(c2ccc([N+](=O)[O-])cc2)N1c1ccc(-n2c(-c3ccccc3)nc3ccccc3c2=O)cc1 (stereo not given) | > 100 µM (inactive) | > 100 µM (inactive) | 16.7 µM (inactive) | > 100 µM (inactive) | 41 µM (inactive) | – | > 100 µM (inactive) | > 100 µM (inactive) | > 100 µM (inactive) | > 100 µM (inactive) | 60.7 µM (inactive) | > 100 µM (inactive) | 42.9 µM (inactive) | > 100 µM (inactive) | > 100 µM (inactive) | > 100 µM (inactive) | 14.6 µM (inactive) | 7.98 µM (inactive) | > 100 µM (inactive)
